This note sets out measurements from patent US9643974B2, “Amino-substituted imidazopyridazines” (Bayer Intellectual Property GmbH, priority 2011, dated 2017).

Usually IC50 stands for the concentration needed to halve the response being measured. Higher therefore signals a need for much substance.

For one test, the target named is T1, human full-lengt MKNK1 (Homo sapiens, UniProt Q9BUB5, T385D).
T1 construct: purchased Carna Biosciences 02-145; host or cells: insect cells (baculovirus expression system)
T1 sequence (Q9BUB5 1-424 isoform Q9BUB5-2 T344D): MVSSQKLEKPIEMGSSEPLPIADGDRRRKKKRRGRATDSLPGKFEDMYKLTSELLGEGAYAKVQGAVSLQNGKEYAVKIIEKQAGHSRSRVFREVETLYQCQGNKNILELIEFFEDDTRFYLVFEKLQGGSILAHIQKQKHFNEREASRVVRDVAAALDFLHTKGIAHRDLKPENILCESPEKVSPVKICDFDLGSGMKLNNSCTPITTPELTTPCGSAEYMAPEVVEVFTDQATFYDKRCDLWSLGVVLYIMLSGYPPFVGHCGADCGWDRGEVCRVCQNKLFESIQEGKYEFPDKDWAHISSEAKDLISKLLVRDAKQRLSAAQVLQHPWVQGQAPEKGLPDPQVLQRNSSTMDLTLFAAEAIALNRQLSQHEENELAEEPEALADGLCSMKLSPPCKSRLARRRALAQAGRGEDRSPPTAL
The experiment in a line: MKNK1 kinase assay (MKNK1 TR-FRET assay). The format is biochemical. The settings on record: ATP final conc. 10 μM, 15 min preincubation, 45 min reaction at 22° C. The source says:
MKNK1-inhibitory activity of compounds of the present invention was quantified employing the MKNK1 TR-FRET assay as described in the following paragraphs.
A recombinant fusion protein of Glutathione-S-Transferase (GST, N-terminally) and human full-lengt MKNK1 (amino acids 1-424 and T344D of accession number BAA 19885.1), expressed in insect cells using baculovirus expression system and purified via glutathione sepharose affinity chromatography, was purchased from Carna Biosciences (product no 02-145) and used as enzyme. As substrate for the kinase reaction the biotinylated peptide biotin-Ahx-IKKRKLTRRKSLKG (C-terminus in amide form) was used which can be purchased e.g. form the company Biosyntan (Berlin-Buch, Germany).
(§1) For the assay 50 nL of a 100 fold concentrated solution of the test compound in DMSO was pipetted into a black low volume 384 well microtiter plate (Greiner Bio-One, Frickenhausen, Germany), 2 μL of a solution of MKNK1 in aqueous assay buffer [50 mM HEPES pH 7.5, 5 mM magnesium chloride, 1.0 mM dithiothreitol, 0.005% (v/v) Nonidet-P40 (Sigma)] was added and the mixture was incubated for 15 min at 22° C. to allow pre-binding of the test compounds to the enzyme before the start of the kinase reaction. Then the kinase reaction was started by the addition of 3 μL of a solution of adenosine-tri-phosphate (ATP, 16.7 μM=>final conc. in the 5 μL assay volume is 10 μM) and substrate (0.1 μM=>final conc. in the 5 μL assay volume is 0.06 μM) in assay buffer and the resulting mixture was incubated for a reaction time of 45 min at 22° C. The concentration of MKNK1 was adjusted depending of the activity of the enzyme lot and was chosen appropriate to have the assay in the linear range, typical concentrations were in the range of 0.05 μg/ml. The reaction was stopped by the addition of 5 μL of a solution of TR-FRET detection reagents (5 nM streptavidine-XL665 [Cisbio Bioassays, Codolet, France] and 1 nM anti-ribosomal protein S6 (pSer236)-antibody from Invitrogen [#44921G] and 1 nM LANCE EU-W1024 labeled ProteinG [Perkin-Elmer, product no. AD0071]) in an aqueous EDTA-solution (100 mM EDTA, 0.1% (w/v) bovine serum albumin in 50 mM HEPES pH 7.5).
The resulting mixture was incubated for 1 h at 22° C. to allow the formation of complex between the phosphorylated biotinylated peptide and the detection reagents. Subsequently the amount of phosphorylated substrate was evaluated by measurement of the resonance energy transfer from the Eu-chelate to the streptavidine-XL. Therefore, the fluorescence emissions at 620 nm and 665 nm after excitation at 350 nm were measured in a TR-FRET reader, e.g. a Rubystar (BMG Labtechnologies, Offenburg, Germany) or a Viewlux (Perkin-Elmer). The ratio of the emissions at 665 nm and at […] was taken as the measure for the amount of phosphorylated substrate. The data were normalised (enzyme reaction without inhibitor=0% inhibition, all other assay components but no enzyme=100% inhibition). Usually the test compounds were tested on the same microtiterplate in 11 different concentrations in the range of 20 μM to 0.1 nM (20 μM, 5.9 μM, 1.7 μM, 0.51 μM, 0.15 μM, 44 nM, 13 nM, 3.8 nM, 1.1 nM, 0.33 nM and 0.1 nM, the dilution series prepared separately before the assay on the level of the 100 fold concentrated solutions in DMSO by serial 1:3.4 dilutions) in duplicate values for each concentration and […] were calculated by a 4 parameter fit.
(In general: TR-FRET usually uses a lanthanide donor and a delayed reading to cut background.)

Another test has as its target T2, human full-length MKNK1 (Homo sapiens, UniProt Q9BUB5, T385D).
T2 construct: purchased Carna Biosciences 02-145; host or cells: insect cells (baculovirus expression system)
The experiment in a line: MKNK1 kinase high ATP assay (TR-FRET-based). It is filed as biochemical. The settings on record: ATP final conc. 2 mM, 15 min preincubation, 30 min reaction at 22° C. As for the experimental part: MKNK1 Kinase High ATP Assay
MKNK1-inhibitory activity at high ATP of compounds of the present invention after their preincubation with MKNK1 was quantified employing the TR-FRET-based MKNK1 high ATP assay as described in the following paragraphs.
A recombinant fusion protein of Glutathione-S-Transferase (GST, N-terminally) and human full-length MKNK1 (amino acids 1-424 and T344D of accession number BAA 19885.1), expressed in insect cells using baculovirus expression system and purified via glutathione sepharose affinity chromatography, was purchased from Carna Biosciences (product no 02-145) and used as enzyme. As substrate for the kinase reaction the biotinylated peptide biotin-Ahx-IKKRKLTRRKSLKG (C-terminus in amide form) was used, which can be purchased e.g. from the company Biosyntan (Berlin-Buch, Germany).
as §1, with “3.3 mM=>final” for “16.7 μM=>final”, “2 mM)” for “10 μM)”, “30” for “45”, “0.003 μg/mL.” for “0.05 μg/ml.”
The resulting mixture was incubated for 1 h at 22° C. to allow the formation of complex between the phosphorylated biotinylated peptide and the detection reagents. Subsequently the amount of phosphorylated substrate was evaluated by measurement of the resonance energy transfer from the Eu-chelate to the streptavidine-XL. Therefore, the fluorescence emissions at 620 nm and 665 nm after excitation at 350 nm were measured in a TR-FRET reader, e.g. a Rubystar (BMG Labtechnologies, Offenburg, Germany) or a Viewlux (Perkin-Elmer). The ratio of the emissions at 665 nm and at […] was taken as the measure for the amount of phosphorylated substrate. The data were normalised (enzyme reaction without inhibitor=0% inhibition, all other assay components but no enzyme=100% inhibition).

Where a name gives a salt, the structure may show the parent alone.

T2 sequence (Q9BUB5 1-424 isoform Q9BUB5-2 T344D): as above

For the compound `C[C@H](N)COc1ccc2ncc(-c3cc4ccncc4o3)n2n1` [Example 12, (2S)-1-{[3-(Furo[2,3-c]pyridin-2-yl)imidazo[1,2-b]pyridazin-6-yl]oxy}propan-2-amine], the IC50 worked out at 26 nM against human full-lengt MKNK1 and 65 nM against human full-length MKNK1.

For the compound `N[C@H]1C[C@H](Oc2ccc3ncc(-c4cc5cnccc5o4)n3n2)C1` [Example 29, trans-3-{[3-(Furo[3,2-c]pyridin-2-yl)imidazo[1,2-b]pyridazin-6-yl]oxy}cyclobutanamine], the values for the IC50 at human full-lengt MKNK1 and against human full-length MKNK1 were 8 nM and 16 nM, respectively.

In the case of `CCOc1nccc2oc(-c3cnc4ccc(OC[C@H](C)N)nn34)cc12` [Example 32, (2S)-1-{[3-(4-Ethoxyfuro[3,2-c]pyridin-2-yl)imidazo[1,2-b]pyridazin-6-yl]oxy}-propan-2-amine], the results for the IC50 against human full-lengt MKNK1 and against human full-length MKNK1 were 14 nM and 37 nM, respectively.

As to `CC(C)Oc1nccc2oc(-c3cnc4ccc(OC[C@H](C)N)nn34)cc12` [Example 19, (2S)-1-({3-[4-(Propan-2-yloxy)furo[3,2-c]pyridin-2-yl]imidazo[1,2-b]pyridazin-6-yl}oxy)propan-2-amine], the IC50 at human full-lengt MKNK1 is 17 nM; at human full-length MKNK1, 34 nM.

Take `CCOc1nccc2oc(-c3cnc4ccc(O[C@H]5C[C@H](N)C5)nn34)cc12` [Example 36, trans-3-{[3-(4-Ethoxyfuro[3,2-c]pyridin-2-yl)imidazo[1,2-b]pyridazin-6-yl]oxy}-cyclobutanamine]: the IC50 at human full-lengt MKNK1 and at human full-length MKNK1 was 4 nM in each case.

Take `C[C@@H](N)COc1ccc2ncc(-c3cc4ncccc4o3)n2n1` [Example 17, (2R)-{[3-(Furo[3,2-b]pyridin-2-yl)imidazo[1,2-b]pyridazin-6-yl]oxy}propan-2-amine]: the IC50 on human full-lengt MKNK1 was determined as 67 nM; at human full-length MKNK1, 127 nM.

`CCNc1nccc2oc(-c3cnc4ccc(OC[C@H](C)N)nn34)cc12` [Example 40, 2-(6-{[(2S)-2-Aminopropyl]oxy}imidazo[1,2-b]pyridazin-3-yl)-N-ethylfuro[3,2-c]pyridin-4-amine]: the IC50 is 5 nM on human full-lengt MKNK1 and 13 nM at human full-length MKNK1.

`COc1nccc2oc(-c3cnc4ccc(O[C@H]5C[C@H](N)C5)nn34)cc12` [Example 2, trans-3-{[3-(4-Methoxyfuro[3,2-c]pyridin-2-yl)imidazo[1,2-b]pyridazin-6-yl]-oxy}cyclobutanamine]: the IC50 stood at 3 nM at human full-lengt MKNK1 and 5 nM on human full-length MKNK1.

Take `C[C@H](N)COc1ccc2ncc(-c3cc4c(OCC5CC5)nccc4o3)n2n1` [Example 25, (2S)-1-({3-[4-(Cyclopropylmethoxy)furo[3,2-c]pyridin-2-yl]imidazo[1,2-b]-pyridazin-6-yl}oxy)propan-2-amine]: the IC50 amounted to 16 nM against human full-lengt MKNK1 and 28 nM on human full-length MKNK1.

On to `COc1nccc2oc(-c3cnc4ccc(OC(CN)Cc5ccccc5)nn34)cc12` (stereo not shown) [Example 33, 2-{[3-(4-Methoxyfuro[3,2-c]pyridin-2-yl)imidazo[1,2-b]pyridazin-6-yl]oxy}-3-phenylpropan-1-amine], for which the half-inhibitory concentration (IC50) on human full-lengt MKNK1 is 99 nM; against human full-length MKNK1 it was 117 nM.

In the case of `C[C@H](CN)Oc1ccc2ncc(-c3cc4cnccc4o3)n2n1` [Example 8, (2R)-2-{[3-(Furo[3,2-c]pyridin-2-yl)imidazo[1,2-b]pyridazin-6-yl]oxy}propan-1-amine], the IC50 against human full-lengt MKNK1 is 28 nM; against human full-length MKNK1 it was 136 nM.

On to `CC(C)(C)COc1nccc2oc(-c3cnc4ccc(O[C@H]5C[C@H](N)C5)nn34)cc12` [Example 24, trans-3-({3-[4-(2,2-Dimethylpropoxy)furo[3,2-c]pyridin-2-yl]imidazo[1,2-b]-pyridazin-6-yl}oxy)cyclobutanamine], for which the IC50 at human full-lengt MKNK1 was 3 nM; at human full-length MKNK1, 4 nM.

`N[C@H]1C[C@H](Oc2ccc3ncc(-c4cc5cnccc5o4)n3n2)C1` [Example 14, trans-3-{[3-(Furo[3,2-c]pyridin-2-yl)imidazo[1,2-b]pyridazin-6-yl]oxy}cyclobutanamine salt with formic acid]: the IC50 on human full-lengt MKNK1 was found to be 5 nM; at human full-length MKNK1 it was 34 nM.

On to `N[C@H]1C[C@H](Oc2ccc3ncc(-c4cc5c(O)nccc5o4)n3n2)C1` [Example 35, 2-{6-[(trans-3-Aminocyclobutyl)oxy]imidazo[1,2-b]pyridazin-3-yl}furo[3,2-c]-pyridin-4-ol], for which the IC50 is 21 nM against human full-lengt MKNK1 and 44 nM against human full-length MKNK1.

`COc1nccc2oc(-c3cnc4ccc(OCC(CN)c5ccccc5)nn34)cc12` (stereo not shown) [Example 23, 3-{[3-(4-Methoxyfuro[3,2-c]pyridin-2-yl)imidazo[1,2-b]pyridazin-6-yl]oxy}-2-phenylpropan-1-amine]: the IC50 on human full-lengt MKNK1 was found to be 32 nM; on human full-length MKNK1, 57 nM.

With `C[C@H](N)COc1ccc2ncc(-c3cc4cnccc4o3)n2n1` [Example 20, (2S)-1-{[3-(Furo[3,2-c]pyridin-2-yl)imidazo[1,2-b]pyridazin-6-yl]oxy}propan-2-amine], the IC50 was 64 nM against human full-lengt MKNK1 and 132 nM against human full-length MKNK1.

With `COc1nccc2oc(-c3cnc4ccc(OC[C@@H](N)c5ccccc5)nn34)cc12` [Example 4, (1S)-2-{[3-(4-Methoxyfuro[3,2-c]pyridin-2-yl)imidazo[1,2-b]pyridazin-6-yl]oxy}-1-phenylethanamine], the figures for the IC50 against human full-lengt MKNK1 and against human full-length MKNK1 were 20 nM and 91 nM, respectively.
